Results from patent US11168055B2, “Endocyclic thiamidinoamide-arylamide compound and use thereof for treating hepatitis B” (SHANGHAI LONGWOOD BIOPHARMACEUTICALS CO., LTD., priority 2017, dated 2021).
Like-named read-outs stand apart in the source and are kept apart here.

How the values were obtained:
[1] = test system: HBV DNA in the supernatant of HepG2.2.15; experiment: Determination of anti-HBV activity in HepG2.2.15 cell (HBV DNA in supernatant by qPCR); type: cell-based, Hepatitis B virus
[2] = Determination of cytotoxicity (HepG2 cells, resazurin assay, 4 days); type: cell-based; settings: human, read-out: Experiment 3 Cytotoxicity CC50
Experimental: Experiment 3: Determination of Cytotoxicity
The cytotoxicity of the test compound was tested using HepG2 cells. The cells were incubated for 4 days in the presence of the test compound. Cell activity was assessed using the resazurin assay.

[3] = HepG2.2.15 cells, HBV DNA, read-out: Experiment 2 Cell experiment EC50
[4] = Hepatitis B virus, HepG2.2.15, HepG2.2.15 cells, HBV DNA, read-out: Experiment 2 Cell experiment EC50

Row | SMILES | EC50 [1, 3] [µM] | CC50 at 4 days [2] [µM] | EC50 [1, 4] [µM] | EC50 ([1]; Hepatitis B virus, HepG2.2.15, read-out: Experiment 2 Cell experiment EC50) [µM]
1 | CN=S1(=O)N[C@@H](CC(C)C)C=Cc2c1cn(C)c2C(=O)Nc1ccc(F)c(C#N)c1 (single isomer, unassigned) [Compound 50s1] | 0.1 to 1 | > 30 |  | 
2 | CC(C)[C@@H]1C=Cc2c(cn(C)c2C(=O)Nc2ccc(F)c(F)c2)S(=N)(=O)N1 (single isomer, unassigned) [Compound 10g1] | 0.1 to 1 | > 30 |  | 
3 | COc1ccc(CC[C@H](C)[C@H]2CCc3c(cn(C)c3C(=O)Nc3cc(F)c(F)c(F)c3)S(=N)(=O)N2)cc1 (single isomer, unassigned) [Compound 20ttt1] | 0.1 to 1 | > 30 |  | 
4 | CC(C)C[C@H]1CCc2c(cn(C)c2C(=O)Nc2ccc(F)c(C#N)c2)S(=O)(=NC(C)C)N1 (single isomer, unassigned) [Compound 60x1] | 0.1 to 1 | > 30 |  | 
5 | CC(C)C[C@H]1CCc2c(nn(C)c2C(=O)Nc2ccc(F)c(C#N)c2)S(=N)(=O)N1 (single isomer, unassigned) [Compound 80b1] | 0.1 to 1 | > 30 |  | 
6 | CN=S1(=O)N[C@@H](C(C)C)CCc2c1cn(C)c2C(=O)Nc1ccc(F)c(F)c1 (single isomer, unassigned) [Compound 60a1] | 0.1 to 1 | > 30 |  | 
7 | CN=S1(=O)N[C@@H](CC(C)C)CCc2c1nn(C)c2C(=O)Nc1ccc(F)c(C#N)c1 (single isomer, unassigned) [Compound 90b1] | 0.1 to 1 | > 30 |  | 
8 | CC(C)C[C@H]1C=Cc2c(nn(C)c2C(=O)Nc2ccc(F)c(C#N)c2)S(=N)(=O)N1 (single isomer, unassigned) [Compound 70b1] | 0.1 to 1 | > 30 |  | 
9 | CC(C)[C@H]1C=Cc2c(cn(C)c2C(=O)Nc2ccnc(C(F)F)c2)S(=N)(=O)N1 (single isomer, unassigned) [Compound 10f1] | 0.1 to 1 | > 30 |  | 
10 | CC(C)C[C@H]1C=Cc2c(cn(C)c2C(=O)Nc2cc(F)nc(C#N)c2)S(=N)(=O)N1 (single isomer, unassigned) [Compound 10w1] | 0.1 to 1 | > 30 |  | 
11 | CC(C)[C@H]1CCc2c(nn(C)c2C(=O)Nc2ccc(F)c(C#N)c2)S(=N)(=O)N1 (single isomer, unassigned) [Compound 80a1] | 0.1 to 1 | > 30 |  | 
12 | CCN=S1(=O)N[C@@H](CC(C)C)C=Cc2c1cn(C)c2C(=O)Nc1ccc(F)c(C#N)c1 (single isomer, unassigned) [Compound 50t1] | 0.1 to 1 | > 30 |  | 
13 | CC(C)[C@H]1C=Cc2c(nn(C)c2C(=O)Nc2ccc(F)c(C#N)c2)S(=N)(=O)N1 (single isomer, unassigned) [Compound 70a1] | 0.1 to 1 | > 30 |  | 
14 | CC[C@H](C)[C@H]1C=Cc2c(cn(C)c2C(=O)Nc2ccc(F)c(C#N)c2)S(=N)(=O)N1 (single isomer, unassigned) [Compound 10o1] | 0.1 to 1 | > 30 |  | 
15 | CN=S1(=O)N[C@@H](CC(C)C)CCc2c1cn(C)c2C(=O)Nc1ccc(F)c(C#N)c1 (single isomer, unassigned) [Compound 60v1] | 0.1 to 1 | > 30 |  | 
16 | Cn1cc2c(c1C(=O)Nc1ccc(F)c(C#N)c1)C=C[C@H](C1CCCCC1)NS2(=N)=O (single isomer, unassigned) [Compound 10cc1] | 0.1 to 1 | > 30 |  | 
17 | CC(O)[C@H]1CCc2c(cn(C)c2C(=O)Nc2ccc(F)c(F)c2)S(=N)(=O)N1 (single isomer, unassigned) [Compound 40a1] |  | > 30 | 0.1 to 1 | 
18 | CC(O)[C@H]1C=Cc2c(cn(C)c2C(=O)Nc2ccc(F)c(C#N)c2)S(=N)(=O)N1 (single isomer, unassigned) [Compound 30b1] |  | > 30 | 0.1 to 1 | 
19 | Cn1cc2c(c1C(=O)Nc1ccnc(C(F)F)c1)CC[C@H](C1CCCCC1)NS2(=N)=O (single isomer, unassigned) [Compound 20ee1] | 0.1 to 1 | > 30 |  | 
20 | CC(C)C[C@H]1C=Cc2c(cn(C)c2C(=O)Nc2ccc(F)c(C#N)c2)S(=O)(=NC(C)C)N1 (single isomer, unassigned) [Compound 50u1] | 0.1 to 1 | > 30 |  | 
21 | CC(O)[C@H]1C=Cc2c(cn(C)c2C(=O)Nc2ccc(F)c(F)c2)S(=N)(=O)N1 (single isomer, unassigned) [Compound 30a1] |  | > 30 | 0.1 to 1 | 
22 | CC(C)[C@H]1C=Cc2c(cn(C)c2C(=O)Nc2ccc(F)c(F)c2)S(=N)(=O)N1 (single isomer, unassigned) [Compound 10a1] | 0.1 to 1 | > 30 |  | 
23 | C[C@@H](OCc1ccccc1)[C@H]1C=Cc2c(cn(C)c2C(=O)Nc2ccc(F)c(C#N)c2)S(=N)(=O)N1 (single isomer, unassigned) [Compound 10ccc1] | 0.1 to 1 | > 30 |  | 

Row | SMILES | EC50 [1, 3] [µM] | CC50 at 4 days [2] [µM] | EC50 [1, 4] [µM] | EC50 ([1]; Hepatitis B virus, HepG2.2.15, read-out: Experiment 2 Cell experiment EC50) [µM]
24 | CC(O)[C@H]1C=Cc2c(cn(C)c2C(=O)Nc2cc(F)c(F)c(F)c2)S(=N)(=O)N1 (single isomer, unassigned) [Compound 30c1] |  | > 30 | 0.1 to 1 | 
25 | CCN=S1(=O)N[C@@H](CC(C)C)CCc2c1cn(C)c2C(=O)Nc1ccc(F)c(C#N)c1 (single isomer, unassigned) [Compound 60w1] | 0.1 to 1 | > 30 |  | 
26 | CC(C)C[C@H]1C=Cc2c(cn(C)c2C(=O)Nc2ccc(F)c(C#N)c2)S(=O)(=NC2CC2)N1 (single isomer, unassigned) [Compound 50v1] | 0.1 to 1 | > 30 |  | 
27 | CN=S1(=O)N[C@@H](C(C)C)CCc2c1nn(C)c2C(=O)Nc1ccc(F)c(C#N)c1 (single isomer, unassigned) [Compound 90a1] | 0.1 to 1 | > 30 |  | 
28 | C[C@@H](OCc1ccccc1)[C@H]1C=Cc2c(cn(C)c2C(=O)Nc2cc(F)c(F)c(F)c2)S(=N)(=O)N1 (single isomer, unassigned) [Compound 10ddd1] | 0.1 to 1 | > 30 |  | 
29 | Cn1cc2c(c1C(=O)Nc1ccc(F)c(F)c1)C=C[C@H](CO)NS2(=N)=O (single isomer, unassigned) [Compound 30g1] |  | > 30 | 0.1 to 1 | 
30 | CC(O)[C@H]1CCc2c(cn(C)c2C(=O)Nc2ccc(F)c(C#N)c2)S(=N)(=O)N1 (single isomer, unassigned) [Compound 40b1] |  | > 30 | 0.1 to 1 | 
31 | CC(C)[C@@H]1C=Cc2c(cn(C)c2C(=O)Nc2ccc(F)c(C#N)c2)S(=N)(=O)N1 (single isomer, unassigned) [Compound 10h1] |  | > 30 | > 1 | 
32 | COc1ccc(CC[C@H](C)[C@H]2C=Cc3c(cn(C)c3C(=O)Nc3cc(F)nc(C#N)c3)S(=N)(=O)N2)cc1 (single isomer, unassigned) [Compound 10vvv1] | 0.1 to 1 | > 30 |  | 
33 | CCN=S1(=O)N[C@@H](C(C)C)CCc2c1cn(C)c2C(=O)Nc1ccc(F)c(C#N)c1 (single isomer, unassigned) [Compound 60g1] | 0.1 to 1 | > 30 |  | 
34 | CC(C)[C@H]1CCc2c(cn(C)c2C(=O)Nc2ccc(F)c(F)c2)S(=N)(=O)N1 (single isomer, unassigned) [Compound 20a1] | 0.1 to 1 | > 30 |  | 
35 | CC(C)[C@H]1CCc2c(cn(C)c2C(=O)Nc2cc(F)c(F)c(F)c2)S(=N)(=O)N1 (single isomer, unassigned) [Compound 20c1] | 0.1 to 1 | > 30 |  | 
36 | CC(C)[C@H]1CCc2c(cn(C)c2C(=O)Nc2ccc(F)c(C#N)c2)S(=N)(=O)N1 (single isomer, unassigned) [Compound 20b1] | 0.1 to 1 | > 30 |  | 
37 | CC(C)[C@H]1C=Cc2c(cn(C)c2C(=O)Nc2ccc(F)c(C#N)c2)S(=N)(=O)N1 (single isomer, unassigned) [Compound 10b1] |  | > 30 |  | 0.1 to 1
38 | CC(C)[C@H]1C=Cc2c(cn(C)c2C(=O)Nc2cc(F)c(F)c(F)c2)S(=N)(=O)N1 (single isomer, unassigned) [Compound 10c1] | 0.1 to 1 | > 30 |  | 
39 | Cn1cc2c(c1C(=O)Nc1ccc(F)c(F)c1)CC[C@H](CO)NS2(=N)=O (single isomer, unassigned) [Compound 40g1] |  | > 30 | 0.1 to 1 | 
40 | Cn1cc2c(c1C(=O)Nc1ccc(F)c(F)c1)C=C[C@H](C1CCCCC1)NS2(=N)=O (single isomer, unassigned) [Compound 10bb1] | 0.1 to 1 | > 30 |  | 
41 | C[C@@H](OCc1ccccc1)[C@H]1CCc2c(cn(C)c2C(=O)Nc2ccc(F)c(C#N)c2)S(=N)(=O)N1 (single isomer, unassigned) [Compound 20ccc1] |  | > 30 | 0.0001 to 0.1 | 
42 | CC(C)C[C@H]1CCc2c(cn(C)c2C(=O)Nc2ccc(F)c(C#N)c2)S(=O)(=NC2CC2)N1 (single isomer, unassigned) [Compound 60y1] | 0.1 to 1 | > 30 |  | 
43 | Cn1cc2c(c1C(=O)Nc1cc(F)nc(C#N)c1)CC[C@H](C1CCCCC1)NS2(=N)=O (single isomer, unassigned) [Compound 20dd1] | 0.1 to 1 | > 30 |  | 
44 | CC[C@H](C)[C@H]1C=Cc2c(cn(C)c2C(=O)Nc2ccc(F)c(F)c2)S(=N)(=O)N1 (single isomer, unassigned) [Compound 10n1] | 0.1 to 1 | > 30 |  | 
45 | CN=S1(=O)N[C@@H](C(C)C)C=Cc2c1cn(C)c2C(=O)Nc1ccc(F)c(F)c1 (single isomer, unassigned) [Compound 50a1] | 0.1 to 1 | > 30 |  | 
46 | CC(C)[C@H]1C=Cc2c(cn(C)c2C(=O)Nc2cc(F)nc(C#N)c2)S(=N)(=O)N1 (single isomer, unassigned) [Compound 10e1] | 0.1 to 1 | > 30 |  | 
